Assays:
Assay in all cases: relative viability (nuclei count vs DMSO), 5 days (fraction); higher = more cells survive
TGX 221 + Decitabine = compound: CC1=CN2C(=O)C=C(N=C2C(=C1)C(C)NC3=CC=CC=C3)N4CCOCC4 [TGX 221] + Nc1ncn([C@H]2C[C@H](O)[C@@H](CO)O2)c(=O)n1 [Decitabine] (partner 2 µM)
How it was run: (§1)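 The day after seeding in 1536-well plates, lung cancer cell lines were treated by pin tool with a single drug, or with a fixed anchor-drug dose together with five library-drug doses (not always all listed) in √10 steps. After 5 days, a combined fix-and-stain solution (final 0.05% Triton X-100, 1% formaldehyde, 1 ug/ml Hoechst) was added. Nuclei counted on 4× images gave relative viability as treated counts over vehicle counts, reported as the median of duplicate plates.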

[1] = compound: O=C(CCCCCCNC(=O)c1cnc(N(c2ccccc2)c2ccccc2)nc1)NO [Ricolinostat] + N=C(N)NC(=N)NCCc1ccccc1 [Phenformin] (partner 250 µM)
How it was run: as §1

[2] = compound: O=C(CCCCCCNC(=O)c1cnc(N(c2ccccc2)c2ccccc2)nc1)NO [Ricolinostat] + CS(=O)(=O)N1CCN(Cc2cc3nc(-c4cccc5[nH]ncc45)nc(N4CCOCC4)c3s2)CC1 [Pictilisib] (partner 1 µM)
How it was run: as §1

[3] = compound: C1=CC=C(C(=C1)C2=CC=C(C=C2)C3=CSC4=C3C(=C(C(=O)N4)C#N)O)O + Cc1nc(NC(=O)N2CCC[C@H]2C(N)=O)sc1-c1ccnc(C(C)(C)C(F)(F)F)c1 [Alpelisib] (partner 2 µM)
How it was run: as §1

Cell Line | relative viability (TGX 221 + Decitabine; first compound 0.08 µM) | relative viability (TGX 221 + Decitabine; first compound 0.253 µM) | relative viability (TGX 221 + Decitabine; first compound 0.8 µM) | relative viability (TGX 221 + Decitabine; first compound 2.53 µM) | relative viability (TGX 221 + Decitabine; first compound 8 µM) | relative viability ([1]; first compound 0.08 µM) | relative viability ([1]; first compound 0.253 µM) | relative viability ([1]; first compound 0.8 µM) | relative viability ([1]; first compound 2.53 µM) | relative viability ([2]; first compound 0.08 µM) | relative viability ([2]; first compound 0.253 µM) | relative viability ([2]; first compound 0.8 µM) | relative viability ([2]; first compound 2.53 µM) | relative viability ([3]; first compound 0.08 µM) | relative viability ([3]; first compound 0.253 µM) | relative viability ([3]; first compound 0.8 µM) | relative viability ([3]; first compound 2.53 µM) | relative viability ([3]; first compound 8 µM)
NCI-H2342 | 0.693 | 0.638 | 0.725 | 0.68 | 0.773 | 0.475 | 0.578 | 0.614 | 0.713 | – | – | – | – | – | – | – | – | –
SK-LU-1 | 0.612 | 0.626 | 0.522 | 0.588 | 0.626 | 0.449 | 0.666 | 0.565 | 0.395 | 0.478 | 0.469 | 0.423 | 0.485 | 0.834 | 1.15 | 1.13 | 1.07 | 0.974
NCI-H2023 | 0.224 | 0.236 | 0.243 | 0.217 | 0.23 | – | 0.403 | 0.382 | 0.344 | 0.162 | 0.277 | 0.183 | 0.185 | 0.517 | 0.591 | 0.644 | 0.607 | 0.585
NCI-H1299 | – | – | – | – | – | – | – | – | – | 0.77 | 0.796 | 0.784 | 0.603 | 1.01 | 1.08 | 1.14 | 1.08 | 0.699
LOU-NH91 | 0.821 | 0.763 | 0.785 | 0.802 | 0.788 | 0.516 | 0.726 | 0.713 | 0.744 | – | 0.557 | 0.492 | 0.528 | 0.678 | 0.789 | 0.721 | 0.663 | 0.67
LCLC-103H | 0.777 | 0.704 | 0.677 | 0.725 | 0.754 | 0.252 | 0.323 | 0.371 | 0.325 | 0.456 | 0.47 | 0.583 | 0.547 | 0.948 | 0.881 | 1.05 | 0.981 | 0.869
SW 1573 | 0.457 | 0.387 | 0.535 | 0.517 | 0.524 | 0.316 | 0.393 | 0.474 | 0.551 | 0.454 | 0.504 | 0.542 | 0.475 | 0.726 | 0.974 | 0.758 | 0.624 | 0.583
NCI-H1755 | 0.723 | 0.657 | 0.655 | 0.631 | 0.632 | 0.45 | 0.6 | 0.608 | 0.604 | 0.278 | – | 0.402 | 0.312 | 0.861 | 0.957 | 0.941 | 1.03 | 0.883
COR-L 105 | 0.651 | 0.609 | 0.628 | 0.649 | 0.596 | – | 0.562 | 0.458 | 0.471 | 0.367 | 0.412 | 0.485 | 0.279 | 0.859 | 1.04 | 0.93 | 0.802 | 0.953
NCI-H1793 | 0.442 | 0.369 | 0.479 | 0.381 | 0.37 | – | 0.438 | 0.355 | 0.369 | – | 0.31 | 0.311 | 0.298 | 0.699 | 0.624 | 0.598 | 0.581 | 0.45
EMC-BAC-2 | 0.961 | 0.886 | 0.947 | 1.05 | 0.85 | 0.475 | 0.481 | 0.476 | 0.396 | 0.433 | 0.578 | 0.558 | 0.442 | 0.711 | 0.73 | 0.748 | 0.821 | 0.697
H3255 | 0.54 | 0.595 | 0.53 | 0.58 | 0.553 | 0.367 | 0.358 | 0.405 | 0.416 | 0.387 | 0.418 | 0.484 | 0.484 | 0.799 | 0.778 | 0.68 | 0.687 | 0.563
PC-14 | 0.206 | 0.203 | 0.228 | 0.281 | 0.207 | 0.364 | 0.532 | 0.477 | 0.37 | 0.536 | 0.681 | 0.653 | 0.321 | 0.761 | 1.17 | 0.853 | 0.981 | 0.71
NCI-H661 | 0.537 | 0.529 | 0.56 | 0.564 | 0.505 | 0.27 | 0.285 | 0.262 | 0.302 | – | 0.412 | 0.422 | 0.727 | 0.59 | 0.583 | 0.538 | 0.554 | 0.549
HARA | 0.604 | 0.488 | 0.529 | 0.504 | 0.433 | 0.411 | 0.452 | 0.427 | 0.124 | 0.208 | 0.481 | 0.503 | 0.203 | – | 0.84 | 0.796 | 0.932 | 0.655
COR-L23 | 0.445 | 0.402 | 0.483 | 0.487 | 0.489 | 0.363 | 0.379 | 0.402 | 0.227 | 0.576 | 0.737 | 0.697 | 0.326 | 0.832 | 0.998 | 0.702 | 0.92 | 0.63

Source: the supplement of paper PMC10307832
